What was measured:
ATII cells [1] = experiment: Western analysis of CCT-α and SP-B in ATII cells after in utero nicotine; format: in vivo, Sprague-Dawley rat
Experimental: Pathogen-free timed (embryonic day 0=day of mating) pregnant Sprague-Dawley rats (200-250 g body wt) were obtained from Charles River (Hollister, Calif.) at embryonic day 3 and allowed to acclimatize until embryonic day 6. […] The fetuses were extracted by cesarean section, and the lungs were snap frozen for later analysis or processed for ATII cell or fibroblast culture. […] Louis, Mo.; 0.25 mg/kg). All studies were approved by the Los Angeles Biomedical Research Institute Institutional Review Board and were conducted in accordance with the National Institutes of Health Guide for the Care and Use of Laboratory Animals. Protein extraction and Western blot analysis for SP-B and choline phosphate cytidylyltransferase-α (CCT-α) were performed using standard methods. […] Chemicon) overnight at 4° C. The antibody for CCT-α (1:2,000 dilution) was a kind gift from Dr. […] (University of Iowa, Iowa City, Iowa). […] The density of the SP-B and CCT-α bands was quantified using a scanning densitometer (Eagle Eye, Stratagene).

ATII cells [2] = tested on: ATII cells
Experimental: Isolated ATII cells were cultured in DMEM+10% FBS in 6- and 96-well plates, 100-mm dishes, and T-75 flasks, as needed, and maintained at 37° C. in a humidified incubator containing 5% CO2-95% air. At 80-90% confluence, cells were processed for cell proliferation, differentiation, and metabolic studies (see below).
Briefly, [1,2-^13C2]glucose was purchased with >99% enrichment for the specified carbon positions from Isotech (Miamisburg, Ohio). Lung ATII cells were isolated from embryonic day 20 pups from specified treatment groups and cultured in T-75 tissue culture flasks. […] The [^13C]glucose label is readily incorporated into various metabolites in mammalian cells, including ribonucleic acid (through ribose synthesis), lactate (through glycolysis), glutamate (through the tricarboxylic acid cycle), and palmitate (through the formation of acetyl-CoA). As the molecular weight (atomic mass unit) of these molecules increases on incorporation of the heavier ^13C atoms derived from [1,2,^13C2]glucose, they can be separated and quantitatively analyzed by gas chromatography-mass spectrometry (MS) on the basis of changes in their mass-to-charge ratios (m/z). […]
Fatty acids in the cell culture medium were extracted by saponification of the TRIzol cell extract after removal of the RNA-containing supernatant. […] Palmitate was monitored at ion cluster m/z 270. […]

Experimental for WI38 cells: Lipogenic and myogenic status of cultured WI38 cells was assessed by simultaneous staining for lipid droplets and -SMA. Lipids were stained using oil red 0 staining, and -SMA expression was assessed by using anti-SMA (cat. no. A2547, 1:1,000, mouse monoclonal IgG2, Sigma) primary antibody. […] At the end of the experimental period, slides were fixed in freshly prepared 4% paraformaldehyde. Fixed slides were washed in PBS, blocked with 3% normal goat serum (Jackson Immunoresearch Lab) in PBS for 30 min at room temperature to block nonspecific binding, and then incubated in primary antibody overnight at 4° C. Secondary biotinylated anti-mouse IgG2 was used at 1:200 dilution for 30 min. The slides were then washed 3× with PBS and with double-distilled water 2× and were then incubated with oil red 0 (Sigma) for 15-30 min. Slides were rinsed 3× for 5 min and then mounted and coverslipped with Vestashield mounting medium with 4′,6′-diamidino-2-phenylindole (Vector Laboratories) visualization under a fluorescence microscope.

## CN1CCCC1c1cccnc1 (centres unmarked) [nicotine]
ATII cells [1]; in utero nicotine, P<0.05, n=3
  steady-state SP-B protein level: significantly increased
ATII cells [1]; in vivo nicotine exposure
  CCT-α protein expression: significant increase
WI38 cells
  lipid droplet and α-SMA staining: decreased lipid staining and increased -SMA staining
ATII cells [2]
  de novo palmitate synthesis or [13C]glucose labeling of acetyl-CoA: did not result in a significant change
  ribose synthesis via the oxidative or the nonoxidative pathway: did not alter
